# According to US10889569B2, “Condensed ring group azacyclobutyl triazole derivative, preparation method therefor and use thereof in medicine” (Jiangsu Hengrui Medicine Co., Ltd., priority 2016, dated 2021):
# Legend:
# OTR = OTR (Rattus norvegicus (Rat), UniProt P70536); experiment: Oxytocin-induced rat uterine contraction model; assay type: in vivo; details: female SD rats, 1 μg/kg OT i.v.
# Experimental: The efficacy of OTR inhibitors (compound 2-10mpk, compound 2-30mpk and compound 2-100mpk) on oxytocin (OT)-induced rat uterine contraction model was evaluated by establishing a rat uterine contraction model.
# Compound 2-100mpk: 221.0 mg of compound 2 was weighed, added with 5.40 ml of Cremophor RH40, 2.16 ml of Masine 35-1, 3.24 ml of polyethylene glycol 400 (PEG400) and 1.20 ml of ethanol respectively, and mixed well by ultrasonic vibration;
# Compound 2-30mpk: 54.2 mg of compound 2 was weighed, added with 4.50 ml of Cremophor RH40, 1.80 ml of Masine 35-1, 2.70 ml of polyethylene glycol 400 (PEG400) and 1.00 ml of ethanol respectively, and mixed well by ultrasonic vibration;
# Compound 2-10mpk: 1 ml of compound 2-100mpk solution was added with 9 ml of solvent (45% of Cremophor RH40, 18% of Masine 35-1, 27% of PEG400 and 10% of ethanol), and mixed well. […]
# After completion of the experiment, the area under curve (AUC) of the uterine contraction pressure 5 minutes before and after the administration of the inducing agent was calculated respectively. The efficacy of the test compound was evaluated by calculating the ratio of the difference value in AUC before and after induction to the AUC before induction, and comparing with the difference value of the ratio after administration of the test compound. ΔAUC ratio=(AUC0−AUCT)/AUC0; […]
# [1] = Brain permeability of rats (Kp-unbound); assay type: in vivo; details: both sexes, rat, not told, po; SD rats, 10 mg/kg intragastrically, 0.5 h after administration; read-out: Kp-unbound (blood-brain permeability index)
# Experimental: The activity of the compounds of the present invention on the brain permeability of rats was determined by the following experimental method:
# Four SD rats (half male and half female) were maintained in a 12 hours light/12 hours dark cycle, in a constant temperature of 24±3° C. and a humidity of 50-60%, and free access to food and water. The compounds were administered intragastrically to the rats after fasting overnight. The administration dosage was 10 mg/kg. The administration group was sacrificed after blood collection at 0.5 h to 2 h after administration (blood volume: 0.5 ml). The blood sample was stored in heparinized tubes, and centrifuged for 10 minutes at 3500 rpm to separate the plasma, which was marked as plasma 1 and stored at […]. The animal was decapitated after sacrificing, and the brain tissue was collected. The residual blood in the brain tissue was sucked with a filter paper, which was marked as brain tissue 1, and stored at 0° C. ten minutes later. Another three animals were treated by the same method as that of administration group to obtain blank plasma and brain tissue 2.
# The drug compounds were diluted to 50 mM with DMSO to obtain a stock solution I. An appropriate amount of stock solution I was diluted with methanol to obtain a diluted stock solution II (200 μM). 10 μl of stock solution II was moved to a 1.5 ml Eppendorf tube, and then added with 990 μl of blank plasma, and mixed well to obtain 2 μM of plasma sample 2 (concentration of DMSO≤0.2%), which was used for the determination of plasma protein binding rate at this concentration. […]
# The equilibrium dialysis tube of RED Device Inserts was inserted into a 96-well plate. […] The chromatographic peak area ratios of the total drug (plasma chamber) and the free drug (buffer chamber) to the internal standard were determined directly by the LC/MS/MS method established above respectively, and the free percent (fu plasma %) was calculated.
# Brain tissue protein binding equilibrium dialysis process: the blank brain tissue 2 was formulated into a blank brain homogenate with PBS (pH 7.4) according to a dilution factor of 11, and added with compound to formulate a 2 μM brain homogenate. Other procedures were the same with that of plasma protein binding, the chromatographic peak area ratios of the total drug (brain homo chamber) and the free drug (buffer chamber) to the internal standard were determined by the established LC/MS/MS method respectively, and the free percent (fu brain hom %) was calculated.
# 1) The drug concentrations in plasma 1 and brain tissue 1 of rats 0.5 h after administration were determined by the established LC/MS/MS method respectively, which were the total concentration (Ctotal, p and Ctotal, b); […]
# Chain of OTR (P70536 whole entry): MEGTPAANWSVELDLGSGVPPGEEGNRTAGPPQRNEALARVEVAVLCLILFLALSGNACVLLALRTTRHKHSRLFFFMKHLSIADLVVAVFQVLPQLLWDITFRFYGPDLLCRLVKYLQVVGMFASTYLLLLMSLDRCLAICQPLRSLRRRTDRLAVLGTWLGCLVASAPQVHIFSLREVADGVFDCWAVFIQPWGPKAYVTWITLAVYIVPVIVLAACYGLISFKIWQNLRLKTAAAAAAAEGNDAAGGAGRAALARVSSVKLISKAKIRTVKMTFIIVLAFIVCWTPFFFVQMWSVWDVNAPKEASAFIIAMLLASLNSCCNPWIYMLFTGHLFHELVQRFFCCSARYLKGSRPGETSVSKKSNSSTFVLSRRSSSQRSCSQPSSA
Kp at 0.5 h [1],Structure (SMILES),Efficacy on OT-induced uterine contraction vs solvent control group (OTR; 30mpk p.o.),Efficacy on OT-induced uterine contraction vs solvent control group (OTR; 100mpk p.o.)
0.199,"COCc1nnc(N2CC(c3cccc4cc(F)ccc34)C2)n1-c1ccc(OC)nc1 [Example 2, 5-(3-(3-(6-Fluoronaphthalen-1-yl)azetidin-1-yl)-5-(methoxymethyl)-4H-1,2,4-triazol-4-yl)-2-methoxypyridine]",can effectively block the downstream function (uterine contraction) of oxytocin receptors mediated by oxytocin,can effectively block the downstream function (uterine contraction) of oxytocin receptors mediated by oxytocin
0.295,"COCc1nnc(N2CC(n3cc(C)c4cc(F)ccc43)C2)n1-c1ccc(OC)nc1 [Example 17, 5-Fluoro-1-(1-(5-(methoxymethyl)-4-(6-methoxypyridin-3-yl)-4H-1,2,4-triazol-3-yl)azetidin-3-yl)-3-methyl-1H-indole]",–,–
